# Reference: patent US10233205B2, “Magnetic resonance imaging contrast agent capable of detecting hydrogen peroxide and reducing reactive oxygen species” (Auburn University, priority 2015, dated 2019)
# Assay: DPPH free radical scavenging assay
# Format: biochemical
# Settings: Example 1
# Protocol: An alternative assessment of the Mn(II) complexes' anti-oxidant properties relied upon the DPPH assay. Aqueous solutions of either 1, 2, or ascorbic acid were added to a solution of 0.10 mM DPPH in MeOH, such that the final reaction volume was 0.2 mL. Samples were incubated in the dark for 30 min at room temperature. Spectrophotometric measurements were subsequently performed at 517 nm using a Molecular Devices Spectramax Plus. This wavelength corresponds to the λmax of the reduced product. Experiments were performed in triplicate and repeated twice.
# The anti-oxidant properties of 1 and 2 were also assessed using the DPPH assay (DPPH=2,2-diphenyl-1-picrylhydrazyl radical hydrate), which evaluates the ability of a compound to donate hydrogen atoms to DPPH to yield the corresponding hydrazine. The anti-oxidants were added to DPPH and incubated in the dark for 30 min at room temperature. Spectroscopic measurements were performed at 517 nm. The data were normalized to the absorbance in the presence of vehicle. All experiments were performed in triplicate and repeated twice.
# Complex 3 is also a competent […] as assessed by the DPPH assay (FIG. 33), which tests the abilities of compounds to donate hydrogen atoms to 2,2-diphenyl-1-picrylhydrazyl radical hydrate. […] The data were normalized to the absorbance in the presence of vehicle. […] The hydrazine product is monitored by UV/vis.
smiles,measurement,value
"CC#N.Cc1ccc(O)c(CN(CCN(Cc2ccccn2)Cc2ccccn2)Cc2ccccn2)c1.[Mn+2].[O-][Cl+3]([O-])([O-])[O-].[O-][Cl+3]([O-])([O-])[O-] [Complex 2, reference compound]",DPPH reduction,fails to reduce DPPH to a noticeable degree
